These results are taken from ChEMBL document CHEMBL1201862, “PubChem BioAssay data set” (2004).

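1) Cells in 96-well plates. 2) Compound, 48 h, 5 concentrations. 3) Linear interpolation between surrounding doses. 4) Unreached endpoint = highest concentration. The concentration for 50% growth inhibition is given as GI50.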 The source made the active and inactive calls. Cut-off read from the data, not from the text of the source: active = GI50 up to about 1.1 µM and inactive = higher.

Some test systems named below: K562; SF-295; U-251; RXF 393; OVCAR-5; OVCAR-3; UO-31; SK-OV-3; SNB-19; UACC-62; M14; HT-29; OVCAR-8; CCRF-CEM; SR; HOP-62; HCC 2998; MDA-MB-435; MDA-MB-231; SK-MEL-28.
Assay in all cases: DTP human tumour cell line panel, 48 h

Consider `O=[N+]([O-])O` [NITRIC ACID], for which the GI50 with K562, with SF-295, with U-251, in the test with RXF 393, in the test with OVCAR-5 and in the test with OVCAR-3 was > 100000 nM (inactive) throughout. For the same compound, the GI50 in the test on UO-31, in the test on SK-OV-3, in the test on SNB-19, in the test on UACC-62, in the test on M14 and in the test with HT-29 was > 100000 nM (inactive) each time. For the same compound, the GI50 with OVCAR-8 was > 100000 nM (inactive); in the test on CCRF-CEM, > 100000 nM (inactive); in the test with SR it was 77100 nM (inactive); in the test on HOP-62 it was > 100000 nM (inactive); in the test with HCC 2998, > 100000 nM (inactive); in the test with MDA-MB-435, > 100000 nM (inactive). In addition, the GI50 with MDA-MB-231 and with SK-MEL-28 was > 100000 nM (inactive) throughout.
In the case of `CC(=O)c1cc2c(s1)C(=O)c1scc(C(C)=O)c1C2=O`, the concentration for 50% growth inhibition (GI50) was 272 nM (active) with K562; 883 nM (active) in the test with SF-295; 228 nM (active) with U-251; 348 nM (active) with RXF 393; 1570 nM (inactive) in the test with OVCAR-5; 73.8 nM (active) in the test with OVCAR-3. The concentration for 50% growth inhibition (GI50) in the test on UO-31 is 455 nM (active); in the test with SK-OV-3, 1960 nM (inactive); in the test with SNB-19, 1150 nM (inactive); in the test with UACC-62, 260 nM (active); in the test with M14, 736 nM (active); with HT-29 it was 1810 nM (inactive). Also, the GI50 in the test on OVCAR-8 is 230 nM (active); in the test on CCRF-CEM, 235 nM (active); in the test on SR it was 107 nM (active); with HOP-62 it was 467 nM (active); in the test on HCC 2998 it was 1980 nM (inactive); in the test with MDA-MB-435, 224 nM (active). The 50% growth inhibitory concentration (GI50) in the test with MDA-MB-231 was 225 nM (active); in the test on SK-MEL-28 it was 673 nM (active).
In the case of `CC1OC(OC2C(CO)OC(O[C@H]3CC[C@@]4(C)C(=CC[C@H]5[C@@H]6C[C@@H]7O[C@](O)(CC[C@@H](C)COC8OC(CO)C(O)C(O)C8O)[C@@H](C)[C@@H]7[C@@]6(C)CC[C@@H]54)C3)C(OC3OC(C)C(O)C(O)C3O)C2O)C(O)C(O)C1O` (stereo not given in full), the GI50 was 5070 nM (inactive) in the test with K562; 3910 nM (inactive) with SF-295; 1870 nM (inactive) in the test with U-251; 2400 nM (inactive) in the test with RXF 393; 2520 nM (inactive) with OVCAR-5; 12900 nM (inactive) with OVCAR-3. For the same compound, the GI50 with UO-31 is 2820 nM (inactive); in the test with SK-OV-3 it was 2840 nM (inactive); in the test with SNB-19, 2230 nM (inactive); in the test on UACC-62 it was 2520 nM (inactive); in the test with M14, 1910 nM (inactive); in the test with HT-29 it was 1980 nM (inactive). Further, the GI50 is 2190 nM (inactive) in the test with OVCAR-8; 2300 nM (inactive) in the test with CCRF-CEM; 3230 nM (inactive) with SR; 2160 nM (inactive) in the test with HOP-62; 2900 nM (inactive) in the test with HCC 2998; 3060 nM (inactive) in the test with MDA-MB-435. Moreover, the GI50 was 6110 nM (inactive) in the test with MDA-MB-231 and 2460 nM (inactive) in the test with SK-MEL-28.
